Literature values, collected in US20070141149A1, “Controlled-release pharmaceutical formulation” (priority 2003, published 2007).
Where two headings read alike, the source gives them in different places.

Details: orally administered

For `CCOc1ccccc1OCCN[C@H](C)Cc1ccc(OC)c(S(N)(=O)=O)c1` [tamsulosin], the bioavailability (on an empty stomach) is given as about 100%, the bioavailability (taken during meals) is given as “decreased” and the cmax (taken during meals) is given as “decreased”.
